Test results taken from patent US20180303853A1, “COMPOSITIONS AND METHODS FOR TREATING BACTERIAL INFECTIONS USING CEFTAROLINE” (priority 2017, published 2018).

Assays:
[1] = Excretion after single IV dose of radiolabeled ceftaroline fosamil in healthy male adults; type: in vivo, human; conditions: single 600 mg IV dose of radiolabeled ceftaroline fosamil
Protocol: Following administration of a single 600 mg IV dose of radiolabeled ceftaroline fosamil to healthy male adults, approximately 87% of radioactivity was recovered in urine and 6% in feces. The majority of the radioactivity (˜90%) was recovered within 48 hours. Of the radioactivity recovered in urine, approximately 64% was excreted as ceftaroline and approximately 2% as ceftaroline-M-1.

[2] = test system: CYP1A1, CYP1A2, CYP2A6, CYP2B6, CYP2C8, CYP2C9, CYP2C19, CYP2D6, CYP2E1 and CYP3A4; assay: Cytochrome P450 inhibition in human liver microsomes; type: in vitro ADME; conditions: human liver microsomes
[3] = test system: CYP1A2, CYP2B6, CYP2C8, CYP2C9, CYP2CI9, or CYP3A4/5; assay: CYP induction in human hepatocytes; type: in vitro ADME; conditions: human hepatocytes
[4] = test system: complicated skin and skin structure infections (cSSSI); assay: Two Phase 3 studies in cSSSI, clinical cure at TOC; type: in vivo, human; conditions: for Treatment Difference (2-sided 95% CI): vs Vancomycin/Aztreonam
Protocol: (§1) A total of 1396 adults with clinically documented complicated skin and skin structure infections (cSSSI) were enrolled in two randomized, multi-center, multinational, double-blind, studies comparing 600 mg ceftaroline fosamil administered intravenously over 1 hour every 12 hours to vancomycin plus aztreonam [1 g vancomycin administered intravenously over 1 hour followed by 1 g aztreonam administered intravenously over 1 hour every 12 hours]. Patients with cSSSI (deep/extensive cellulitis, a major abscess, a wound infection [surgical or traumatic], infected insect bites, burns or ulcers, lower extremity infection in patients with diabetes mellitus or peripheral vascular disease), were enrolled in the studies. Treatment duration was […] days. A switch to oral therapy was not allowed. The Modified Intent-to-Treat (MITT) population included all patients who received any amount of study drug according to their randomized treatment group.
(§2) The primary efficacy endpoint was clinical response at the Test of Cure (TOC) visit in the co-primary CE and MITT populations (Table 2). […] In a subgroup analysis (CE population), the comparative clinical cure rates between the ceftaroline group and the vancomycin plus aztreonam group were not affected by age, gender, race, ethnicity, or weight.

Escherichia coli [5] = assay: Phase 3 cSSSI studies, clinical cure by infecting pathogen; type: in vivo; conditions: ME patients
Protocol: as §1, §2

Klebsiella oxytoca = assay: as above; type: in vivo; conditions: ME patients
Protocol: as §1, §2

Klebsiella pneumoniae [6] = assay: as above; type: in vivo; conditions: ME patients
Protocol: as §1, §2

Morganella morganii = assay: as above; type: in vivo; conditions: ME patients
Protocol: as §1, §2

Staphylococcus aureus [7] = assay: as above; type: in vivo; conditions: ME patients
Protocol: as §1, §2

Streptococcus agalactiae = assay: as above; type: in vivo; conditions: ME patients
Protocol: as §1, §2

[8] = test system: Streptococcus dysgalactiae; assay: as above; type: in vivo; conditions: ME patients
Protocol: as §1, §2

Streptococcus pyogenes = assay: as above; type: in vivo; conditions: ME patients
Protocol: as §1, §2

[9] = test system: MSSA (methicillin-susceptible); assay: as above; type: in vivo, Staphylococcus aureus; conditions: ME patients
Protocol: as §1, §2

[10] = test system: MRSA (methicillin-resistant); type: in vivo, Staphylococcus aureus; conditions: cSSSI, ME patients
Protocol: as §1, §2

[11] = test system: Streptococcus anginosus group; assay: Phase 3 cSSSI studies, clinical cure by infecting pathogen; type: in vivo, S. anginosus, S. intermedius, and S. constellatus; conditions: ME patients
Protocol: as §1, §2

[12] = test system: Community-Acquired Bacterial Pneumonia (CABP); assay: Two Phase 3 studies in CABP, clinical cure at TOC (single and integrated/combined); type: in vivo, human; conditions: for Treatment Difference (2-sided 95% CI): vs Ceftriaxone
Protocol: (§3) In both treatment groups of CABP Study 1, two doses of oral clarithromycin (500 mg q12 h), were administered as adjunctive therapy starting on Study Day 1. No adjunctive macrolide therapy was used in CABP Study 2. Patients with new or progressive pulmonary infiltrate(s) on chest radiography and clinical signs and symptoms consistent with CABP with the need for hospitalization and IV therapy were enrolled in the studies. Treatment duration was 5 to 7 days. A switch to oral therapy was not allowed. The Modified Intent-to-Treat Efficacy (MITTE) population, included all patients who received any amount of study drug according to their randomized, treatment group and were in PORT (Pneumonia Outcomes Research Team) Risk Class III or IV.
(§4) The primary efficacy endpoint was the clinical response at the Test of Cure (TOC) visit in the co-primary Ce and MITTE populations (Table 4).

Escherichia coli [13] = assay: Integrated Phase 3 CABP studies, clinical cure by infecting pathogen; type: in vivo; conditions: ME patients
Protocol: as §3, §4

Haemophilus influenzae = assay: as above; type: in vivo; conditions: ME patients
Protocol: as §3, §4

Klebsiella pneumoniae [14] = assay: as above; type: in vivo; conditions: ME patients
Protocol: as §3, §4

Staphylococcus aureus [15] = assay: as above; type: in vivo; conditions: ME patients
Protocol: as §3, §4

Streptococcus pneumoniae = assay: as above; type: in vivo; conditions: ME patients
Protocol: as §3, §4

[16] = test system: MDRSP (multidrug-resistant); type: in vivo, Streptococcus pneumoniae; conditions: CABP, ME patients
Protocol: as §3, §4

[17] = test system: MSSA (methicillin-susceptible); assay: Integrated Phase 3 CABP studies, clinical cure by infecting pathogen; type: in vivo, Staphylococcus aureus; conditions: ME patients
Protocol: as §3, §4

[18] = Four pooled controlled comparative Phase 3 clinical studies (two cSSSI, two CABP), safety; conditions: pooled Phase 3 studies
Protocol: Ceftaroline fosamil was evaluated in four controlled comparative Phase 3 clinical studies (two in cSSSI and two in CABP).

[19] = test system: complicated skin and skin structure infections (cSSSI); assay: Two Phase 3 studies in cSSSI, clinical cure at TOC; type: in vivo, human; conditions: Integrated Studies, CE population, 5 to 14 days of therapy
[20] = Aqueous solubility of ceftaroline fosamil
[21] = Pharmacokinetics of ceftaroline after IV infusion of ceftaroline fosamil in adults with normal renal function

CCO/N=C(\C(=O)N[C@@H]1C(=O)N2C(C(=O)[O-])=C(Sc3nc(-c4cc[n+](C)cc4)cs3)CS[C@H]12)c1nsc(NP(=O)(O)O)n1 [Ceftaroline fosamil, (6R,7R)-7-{(2Z)-2-(ethoxyimino)-2-[5-(phosphonoamino)-1,2,4-thiadiazol-3-yl]acetamido}-3-{[4-(1-methylpyridin-1-ium-4-yl)-1,3-thiazol-2-yl]sulfanyl}-8-oxo-5-thia-1-azabicyclo[4.2.0]oct-2-ene-2-carboxylate]
radioactivity recovered in feces [1]: ~6% | radioactivity recovered in urine [1]: approximately 87% | radioactivity recovered within 48 hours [1]: ~90% | inhibition of major cytochrome P450 isoenzymes [2]: neither ceftaroline fosamil nor ceftaroline inhibits | induction of CYP isoenzymes [3]: not inducers | Clinical cure rate at TOC ([4]; Integrated Studies, MITT population): 595/693 (85.9) % | Clinical cure rate at TOC ([4]; cSSSI Study 1, CE population): 288/316 (91.1) % | Clinical cure rate at TOC ([4]; cSSSI Study 1, MITT population): 304/351 (86.6) % | Clinical cure rate at TOC ([4]; cSSSI Study 2, CE population): 271/294 (92.2) % | Clinical cure rate at TOC ([4]; cSSSI Study 2, MITT population): 291/342 (85.1) % | Treatment Difference (2-sided 95% CI) ([4]; Integrated Studies, CE): −1.1 (−4.2, 2.0) | Treatment Difference (2-sided 95% CI) ([4]; Integrated Studies, MITT): 0.3 (−3.4, 4.0) | Treatment Difference (2-sided 95% CI) ([4]; cSSSI Study 1, CE): −2.2 (−6.6, 2.1) | Treatment Difference (2-sided 95% CI) ([4]; cSSSI Study 1, MITT): 1.0 (−4.2, 6.2) | Clinical cure rate by infecting pathogen (Escherichia coli [5]): 20/21 (95.2%) | Clinical cure rate by infecting pathogen (Klebsiella oxytoca): 10/12 (83.3%) | Clinical cure rate by infecting pathogen (Klebsiella pneumoniae [6]): 17/18 (94.4%) | Clinical cure rate by infecting pathogen (Morganella morganii): 11/12 (91.7%) | Clinical cure rate by infecting pathogen (Staphylococcus aureus [7]): 352/378 (93.1%) | Clinical cure rate by infecting pathogen (Streptococcus agalactiae): 21/22 (95.5%) | Clinical cure rate by infecting pathogen [8]: 13/13 (100%) | Clinical cure rate by infecting pathogen (Streptococcus pyogenes): 56/56 (100%) | Clinical cure rate by infecting pathogen [9]: 212/228 (93.0%) | Clinical cure rate by infecting pathogen [10]: 142/152 (93.4%) | Clinical cure rate by infecting pathogen [11]: 12/13 (92.3%) | Clinical cure rate at TOC ([12]; CABP Study 1, CE population): 194/224 (86.6%) | Clinical cure rate at TOC ([12]; CABP Study 1, MITTE population): 244/291 (83.8%) | Clinical cure rate at TOC ([12]; CABP Study 2, CE population): 193/235 (82.1%) | Clinical cure rate at TOC ([12]; CABP Study 2, MITTE population): 235/289 (81.3%) | Clinical cure rate at TOC ([12]; Integrated Studies, CE population, 5 to 7 days of therapy): 387/459 (84.3%) | Clinical cure rate at TOC ([12]; Integrated Studies, MITTE population): 479/580 (82.6%) | Treatment Difference (2-sided 95% CI) ([12]; CABP Study 1, CE): 8.4 (1.4, 15.4) | Treatment Difference (2-sided 95% CI) ([12]; CABP Study 1, MITTE): 6.2 (−0.2, 12.6) | Treatment Difference (2-sided 95% CI) ([12]; CABP Study 2, CE): 4.9 (−2.5, 12.5) | Treatment Difference (2-sided 95% CI) ([12]; CABP Study 2, MITTE): 5.9 (−1.0, 12.7) | Treatment Difference (2-sided 95% CI) ([12]; Integrated Studies, CE): 6.7 (1.6, 11.8) | Treatment Difference (2-sided 95% CI) ([12]; Integrated Studies, MITTE): 6.0 (1.4, 10.7) | Clinical cure rate by infecting pathogen (Escherichia coli [13]): 10/12 (83.3%) | Clinical cure rate by infecting pathogen (Haemophilus influenzae): 15/18 (83.3%) | Clinical cure rate by infecting pathogen (Klebsiella pneumoniae [14]): 13/13 (100%) | Clinical cure rate by infecting pathogen (Staphylococcus aureus [15]): 18/25 (72.0%) | Clinical cure rate by infecting pathogen (Streptococcus pneumoniae): 54/63 (85.7%) | Clinical cure rate by infecting pathogen [16]: 4/4 (100%) | Clinical cure rate by infecting pathogen [17]: 18/25 (72.0%) | Adverse reaction: Constipation [18]: 2% | Adverse reaction: Diarrhea [18]: 5% | Adverse reaction: Headache [18]: 4% | Adverse reaction: Hypokalemia [18]: 2% | Adverse reaction: Increased transaminases [18]: 2% | Adverse reaction: Insomnia [18]: 3% | Adverse reaction: Nausea [18]: 4% | Adverse reaction: Phlebitis [18]: 2% | Adverse reaction: Pruritus [18]: 2% | Adverse reaction: Rash [18]: 3% | Adverse reaction: Vomiting [18]: 2% | Serious adverse events [18]: 8% | discontinuation due to hypersensitivity (most common adverse event leading to discontinuation) [18]: 0.3% | treatment discontinuations due to adverse events [18]: 4% | Clinical cure rate at TOC [19]: 559/610 (91.6) % | aqueous solubility [20]: 8-30 mg per ml | accumulation following multiple IV infusions ([21]; 600 mg every 8 or 12 hours for up to 14 days, normal renal function): No appreciable accumulation | conversion of prodrug in plasma ([21]; appeared to be mediated by a phosphatase enzyme): rapidly converted into bioactive ceftaroline
